# Experimental data from publication PMC3874184 (Nucleic Acids Research, 2013).
# Assays:
# scTrm10_84 = target: T1, scTrm10_84 (Saccharomyces cerevisiae, UniProt Q12400); experiment: X-ray crystal structure, […] Å; details: SAM-binding pocket in C-terminal trefoil knot; 1:3 protein:SAH
# T1 sequence (Q12400 84-276): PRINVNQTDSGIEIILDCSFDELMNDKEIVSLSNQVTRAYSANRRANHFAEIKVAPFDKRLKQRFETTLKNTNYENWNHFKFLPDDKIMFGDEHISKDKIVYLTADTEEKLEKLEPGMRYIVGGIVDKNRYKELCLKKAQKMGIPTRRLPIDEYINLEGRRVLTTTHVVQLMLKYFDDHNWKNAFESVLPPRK
# spTrm10 (spTrm10_FL) [1] = target: T2, spTrm10 (spTrm10_FL) (Schizosaccharomyces pombe, UniProt O14214); experiment: X-ray crystal structure, […] Å; details: SAM-binding pocket in C-terminal trefoil knot; 1:3 protein:SAH
# T2 sequence (O14214 1-304): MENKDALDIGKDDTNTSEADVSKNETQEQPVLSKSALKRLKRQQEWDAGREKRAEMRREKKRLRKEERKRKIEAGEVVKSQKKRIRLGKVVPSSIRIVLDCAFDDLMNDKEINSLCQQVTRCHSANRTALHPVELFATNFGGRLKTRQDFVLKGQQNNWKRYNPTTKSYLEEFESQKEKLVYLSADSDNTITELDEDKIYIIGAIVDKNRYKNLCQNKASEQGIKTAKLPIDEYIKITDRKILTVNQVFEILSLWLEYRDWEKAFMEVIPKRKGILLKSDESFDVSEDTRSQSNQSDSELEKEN
# spTrm10 (spTrm10_FL) [2] = target: spTrm10 (spTrm10_FL) (Schizosaccharomyces pombe, UniProt O14214, N209A); experiment: biochemical
# spTrm10 (spTrm10_FL) (Schizosaccharomyces pombe, UniProt O14214, N209A), sequence (O14214 whole entry N209A): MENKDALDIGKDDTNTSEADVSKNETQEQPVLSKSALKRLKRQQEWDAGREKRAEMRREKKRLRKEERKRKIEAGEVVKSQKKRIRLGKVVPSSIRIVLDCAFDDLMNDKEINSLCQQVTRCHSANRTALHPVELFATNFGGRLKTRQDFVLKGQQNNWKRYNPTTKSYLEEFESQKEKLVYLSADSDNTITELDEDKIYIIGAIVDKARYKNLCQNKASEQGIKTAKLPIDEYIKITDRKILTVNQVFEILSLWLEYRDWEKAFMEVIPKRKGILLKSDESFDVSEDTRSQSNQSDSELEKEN
# spTrm10 (spTrm10_FL) [3] = target: T2, spTrm10 (spTrm10_FL); experiment: biochemical
"X-ray crystal structure, 1.76 Å (scTrm10_84) [JWJ for scTrm10_84-SAH]","X-ray crystal structure, 2.04 Å (spTrm10 (spTrm10_FL) [1]) [JWH for spTrm10-FL-SAH]",Kd (spTrm10 (spTrm10_FL) [2]) [µM],Kd (spTrm10 (spTrm10_FL) [3]) [µM],SMILES
4,4,–,–,Nc1ncnc2c1ncn2[C@@H]1O[C@H](CSCC[C@H](N)C(=O)O)[C@@H](O)[C@H]1O [SAH]
–,–,83.3,4.46,C[S+](CC[C@H](N)C(=O)O)C[C@H]1O[C@@H](n2cnc3c(N)ncnc32)[C@H](O)[C@@H]1O (stereo partly shown) [SAM]
